Measurements published in patent publication US9546129B2, “DTPA prodrugs, compositions thereof, and methods of using the same” (priority 2012, dated 2017).
Marks after values point to notes of the source that are not given here.

Tested on: ^241Am contaminated beagle dogs (inhalation)
Assay: Decorporation efficacy in beagle dogs after ^241Am nitrate inhalation (Example 2)
Format: in vivo, beagle dog
Settings: for Average percent recovered activity, Feces / Average percent recovered activity, Urine: cumulative, Mean (SEM); for Average percent recovered activity, GIT / Average percent recovered activity, Kidney / Average percent recovered activity, Liver / Average percent recovered activity, Lung / Average percent recovered activity, Ovaries / Average percent recovered activity, Soft Tissue / Average percent recovered activity, Spleen / Average percent recovered activity, TBLN / Average percent recovered activity, Testes / Average percent recovered activity, Total Bone: day 14, Mean (SEM)
Experimental: The efficacy of C2E2 of Lot 050 obtained using Method 2 was evaluated in male and female beagle dogs administered a nitrate complex of americium-241 (^241Am) via inhalation (INH). C2E2 was administered 24 hours post ^241Am inhalation exposure. Animals were monitored and urine and feces were collected daily. Cages were rinsed daily. Animals were euthanized 14 days later and tissues collected. Tissues were processed and analyzed for ^241Am content. The in-life measurements and biokinetics of ^241Am with and without chelation treatment are described.
Sixteen (16) male and female beagle dogs underwent a 14-day quarantine period for acclimation. Once released from quarantine, animals were weighed and that weight was used to randomize the animals into the study. Dogs were 13.3±2.2 months of age at study initiation and weighed 8.9±1.2 kg. After randomization, the animals were acclimated to metabolism cages for approximately 24 hours prior to radionuclide inhalation administration of ^241Am(III)-nitrate at time 0 followed by oral gavage administration of vehicle (water) or 100, 300, or 500 mg/kg C2E2 at 24 hours post inhalation exposure. Animals were placed in metabolism cages for the duration of the in-life phase.
Animals were euthanized 14 days after administration of ^241Am. A full necropsy was conducted and liver, spleen, kidneys, lungs and trachea, muscle samples (right and left quadriceps), GI tract (stomach and esophagus, upper and lower intestine), gonads, two femurs, lumbar vertebrae (L1-L4), paws and tail, TBLN, and all soft tissue remains were collected. The brain and eyes were removed from the skull and combined with the soft tissue remains. The skeleton was defleshed and all bone samples collected for analysis. Pelt was not analyzed for ^241Am content.
Urine, feces, cage rinse, and all tissue samples were processed by heat and chemical treatments. The samples were analyzed by gamma pulse height analysis.
For the study, stock C2E2 (L/N: 020WJL050) was obtained as a white powder and stored at 2-8° C. The C2E2 was weighed out and dissolved in vehicle, DI water. Solutions were prepared at 20 mg/mL, 60 mg/mL, and 100 mg/mL on each day of dosing. The formulation was protected from light by wrapping the container in aluminum foil. Metal-free spatulas, glassware, and stir bars were used when weighing and preparing the formulation.
On the morning of exposure, animals were fasted and sedated with acepromazine (0.05 mg/kg) by intramuscular administration. Dogs were anesthetized with isoflurane (5%). A latex mask was placed over the muzzle to minimize external contamination of the dog. The latex-covered muzzle was placed into the exposure plenum where a mixture of oxygen and isoflurane were continuously flowing and being monitored. Oxygen in the box was maintained at 45-55% and isoflurane was delivered as needed (2-3% in oxygen) to ensure the dog remained anesthetized. Aerosols were generated from the ^241Am nitrate solution using a Hospitec nebulizer operated at 10 psi. The aerosol was transited through a tube furnace operating at 70-80° C. to dry the aerosol and minimize the amount of acid present.
The exhaust flow was 12.2 L/min. Aerosols were collected on Pallflex® FiberFilm™ filters at a flow rate of 0.49 L/min for filter samples and 1.95 L/min for cascade impactor samples. Filters were placed in 20-mL vials with 5 mL of 7N HNO3 and vortexed for 30 seconds. The filters were removed and placed singly into another 20-mL vial. A […] aliquot was removed from the original vial. The filter and the aliquot were individually analyzed for ^241Am and the amount collected on the filter was determined. The aerosol concentration was determined to be 1155±223 nCi/L. The particle size was determined to be 0.63 μm AMAD (activity median aerodynamic diameter) with a 1.72 geometric standard deviation (GSD). Animals were exposed for 8 minutes. […]

[1] = C2E2 100 mg/kg (low dose) vs untreated control, dogs, 100 mg/kg
[2] = C2E2 100 mg/kg oral 24 h after ^241Am inhalation, dogs
[3] = C2E2 300 mg/kg (mid dose) vs untreated control, dogs, 300 mg/kg
[4] = C2E2 300 mg/kg oral 24 h after ^241Am inhalation, dogs
[5] = C2E2 500 mg/kg (high dose) vs untreated control, dogs, 500 mg/kg
[6] = C2E2 500 mg/kg oral 24 h after ^241Am inhalation, dogs
[7] = treated groups vs controls, dose not specified

CCOC(=O)CN(CCN(CCN(CC(=O)O)CC(=O)OCC)CC(=O)O)CC(=O)O [C2E2, 6,9-bis(carboxymethyl)-3-(2-ethoxy-2-oxoethyl)-11-oxo-12-oxa-3,6,9-triazatetradecan-1-oic acid] was tested, and the “Percent ^241Am content reduction in tissue, GIT” value [1] was 43.9%, the “Percent ^241Am content reduction in tissue, Gonads” value [1] was 51.1% and the “Percent ^241Am content reduction in tissue, Kidneys” value [1] was 52.4%. The “Percent ^241Am content reduction in tissue, Liver” value [1] was 29.7%, the “Percent ^241Am content reduction in tissue, Lungs” value [1] was 30.6% and the “Percent ^241Am content reduction in tissue, Soft Tissue” value [1] was 47.1%. For the same molecule, the “Percent ^241Am content reduction in tissue, Spleen” value [1] was 47.7%, the “Percent ^241Am content reduction in tissue, TBLN” value [1] was 22.9% and the “Percent ^241Am content reduction in tissue, Total Bone” value [1] was 41.6%. The “Average percent recovered activity, Feces” value [2] was 31.78 (3.21) %, the “Average percent recovered activity, Urine” value [2] was 22.35 (0.56)** % and the “Average percent recovered activity, GIT” value (C2E2 100 mg/kg, dogs) was 0.53 (0.05)** %. For the same molecule, the “Average percent recovered activity, Kidney” value (C2E2 100 mg/kg, dogs) was 0.37 (0.03)** %, the “Average percent recovered activity, Liver” value (C2E2 100 mg/kg, dogs) was 19.13 (1.34)** % and the “Average percent recovered activity, Lung” value (C2E2 100 mg/kg, dogs) was 9.69 (1.77)* %. The “Average percent recovered activity, Ovaries” value (C2E2 100 mg/kg, dogs) was 0.001 (0.000) %, the “Average percent recovered activity, Soft Tissue” value (C2E2 100 mg/kg, dogs) was 1.08 (0.07)** % and the “Average percent recovered activity, Spleen” value (C2E2 100 mg/kg, dogs) was 0.16 (0.03) %. The “Average percent recovered activity, TBLN” value (C2E2 100 mg/kg, dogs) was 0.028 (0.002) %, the “Average percent recovered activity, Testes” value (C2E2 100 mg/kg, dogs) was 0.003 (0.001)* % and the “Average percent recovered activity, Total Bone” value (C2E2 100 mg/kg, dogs) was 14.90 (1.97)** %. The “Percent ^241Am content reduction in tissue, GIT” value [3] was 58.2%, the “Percent ^241Am content reduction in tissue, Gonads” value [3] was 66.3% and the “Percent ^241Am content reduction in tissue, Kidneys” value [3] was 63.0%. For the same molecule, the “Percent ^241Am content reduction in tissue, Liver” value [3] was 51.0%, the “Percent ^241Am content reduction in tissue, Lungs” value [3] was 48.2% and the “Percent ^241Am content reduction in tissue, Soft Tissue” value [3] was 51.8%. The “Percent ^241Am content reduction in tissue, Spleen” value [3] was 74.8%, the “Percent ^241Am content reduction in tissue, TBLN” value [3] was 31.7% and the “Percent ^241Am content reduction in tissue, Total Bone” value [3] was 45.5%. For the same molecule, the “Percent change in excretion, Feces” value [3] was 155%, the “Average percent recovered activity, Feces” value [4] was 41.85 (4.43)** % and the “Average percent recovered activity, Urine” value [4] was 21.93 (2.26)** %. For the same molecule, the “Average percent recovered activity, GIT” value (C2E2 300 mg/kg, dogs) was 0.39 (0.06)** %, the “Average percent recovered activity, Kidney” value (C2E2 300 mg/kg, dogs) was 0.28 (0.04)** % and the “Average percent recovered activity, Liver” value (C2E2 300 mg/kg, dogs) was 13.35 (1.51)** %. For the same molecule, the “Average percent recovered activity, Lung” value (C2E2 300 mg/kg, dogs) was 7.23 (0.89)** %, the “Average percent recovered activity, Ovaries” value (C2E2 300 mg/kg, dogs) was 0.001 (0.001)* % and the “Average percent recovered activity, Soft Tissue” value (C2E2 300 mg/kg, dogs) was 0.99 (0.12)** %. For the same molecule, the “Average percent recovered activity, Spleen” value (C2E2 300 mg/kg, dogs) was 0.07 (0.02)** %, the “Average percent recovered activity, TBLN” value (C2E2 300 mg/kg, dogs) was 0.024 (0.004) % and the “Average percent recovered activity, Testes” value (C2E2 300 mg/kg, dogs) was 0.003 (0.001)* %. For the same molecule, the “Average percent recovered activity, Total Bone” value (C2E2 300 mg/kg, dogs) was 13.93 (1.30)** %, the “Percent ^241Am content reduction in tissue, GIT” value [5] was 54.1% and the “Percent ^241Am content reduction in tissue, Gonads” value [5] was 55.3%. For the same molecule, the “Percent ^241Am content reduction in tissue, Kidneys” value [5] was 61.8%, the “Percent ^241Am content reduction in tissue, Liver” value [5] was 71.7% and the “Percent ^241Am content reduction in tissue, Lungs” value [5] was 63.5%. For the same molecule, the “Percent ^241Am content reduction in tissue, Soft Tissue” value [5] was 50.7%, the “Percent ^241Am content reduction in tissue, Spleen” value [5] was 69.0% and the “Percent ^241Am content reduction in tissue, TBLN” value [5] was 35.0%. For the same molecule, the “Percent ^241Am content reduction in tissue, Total Bone” value [5] was 48.3%, the “Percent change in excretion, Urine” value [5] was 1310% and the “Average percent recovered activity, Feces” value [6] was 36.53 (1.18)* %. The “Average percent recovered activity, Urine” value [6] was 35.63 (0.70)** %, the “Average percent recovered activity, GIT” value (C2E2 500 mg/kg, dogs) was 0.44 (0.05)** % and the “Average percent recovered activity, Kidney” value (C2E2 500 mg/kg, dogs) was 0.29 (0.01)** %. The “Average percent recovered activity, Liver” value (C2E2 500 mg/kg, dogs) was 7.71 (0.35)** %, the “Average percent recovered activity, Lung” value (C2E2 500 mg/kg, dogs) was 5.10 (0.31)** % and the “Average percent recovered activity, Ovaries” value (C2E2 500 mg/kg, dogs) was 0.001 (0.000) %. The “Average percent recovered activity, Soft Tissue” value (C2E2 500 mg/kg, dogs) was 1.01 (0.02)** %, the “Average percent recovered activity, Spleen” value (C2E2 500 mg/kg, dogs) was 0.09 (0.02)* % and the “Average percent recovered activity, TBLN” value (C2E2 500 mg/kg, dogs) was 0.023 (0.003) %. The “Average percent recovered activity, Testes” value (C2E2 500 mg/kg, dogs) was 0.003 (0.001)* %, the “Average percent recovered activity, Total Bone” value (C2E2 500 mg/kg, dogs) was 13.20 (0.86)** % and the In-life observations (dogs, single oral 100, 300, 500 mg/kg, one 500 mg/kg animal (4004) had foamy emesis) was “no unusual or adverse effects”. For the same molecule, the “Reduction of ^241Am content, TBLN” value [7] was “About 50%” and the “Reduction of ^241Am content, total bone content” value [7] was about 40%.
